How the values were obtained:
[1] = system: human leukemic cell line HL-60; assay: Cell differentiation in HL-60 assay (NBT reduction); type: cell-based; settings: for concentration of optimum differentiating effect / NBT-reduction inducing capacity relative to the known 1α,25-DHCC: HL-60 cells; for concentration of optimum differentiating effect / induction of differentiation and maturation of HL-60 cells: NBT reduction; for induction of differentiation and maturation of HL-60 cells: 10^-12 to 10^-6 M; for NBT-reduction inducing capacity relative to the known 1α,25-DHCC: FIGS. 2 and 3, potency ratio versus 1α,25-DHCC
Experimental: Vitamin D compounds according to the invention are dissolved in ethanol in concentrations ranging from 10^-12 to 10^-6 M and tested for their capacity to induce cell differentiation in a HL-60 assay. In this assay, biochemical examination of the human leukemic cell line HL-60 is done, in order to establish whether cell differentiation has taken place.
Differentiation is expressed as the maturation parameter nitroblue tetrazolium (NBT) reduction. After culturing with the known 1α,25-DHCC or with vitamin D compounds of the invention, the percentage of cells containing black formazan deposits is determined. An increase in the percentage of NBT reducing cells indicates an increase in cell differentiation.

[2] = biological target: T1, calf thymus intracellular vitamin D receptor (VDR) (Bos taurus, UniProt Q28037); assay: Affinity to intracellular vitamin D receptor (displacement of 3H-1α,25-DHCC); type: binding; settings: 10^-13 to 10^-7 M, compared with 1α,25-dihydroxycholecalciferol
T1 sequence (Q28037 1-426): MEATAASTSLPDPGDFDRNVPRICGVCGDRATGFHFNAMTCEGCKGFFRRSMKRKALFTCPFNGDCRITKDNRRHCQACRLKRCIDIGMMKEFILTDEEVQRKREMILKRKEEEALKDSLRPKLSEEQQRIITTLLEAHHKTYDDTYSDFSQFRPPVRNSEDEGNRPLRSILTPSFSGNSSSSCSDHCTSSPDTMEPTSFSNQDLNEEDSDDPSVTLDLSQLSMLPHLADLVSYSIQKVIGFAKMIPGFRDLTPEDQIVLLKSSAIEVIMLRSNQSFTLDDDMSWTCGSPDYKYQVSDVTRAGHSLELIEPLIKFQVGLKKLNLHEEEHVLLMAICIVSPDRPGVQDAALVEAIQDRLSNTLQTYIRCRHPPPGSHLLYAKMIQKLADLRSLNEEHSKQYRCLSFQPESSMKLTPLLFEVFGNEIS
Excerpt: Affinity to intracellular vitamin D receptor.
In this assay, ^3 H-1α,25-dihydroxycholecalciferol (^3 H-1α,25-DHCC), which is specifically bound to the VDR, is replaced by the tested compounds. […] A high VDR-affinity is indicative for a biologically active substance. The tested compounds 21 and 28 have moderate VDR-affinities, whereas tested compound 36 has a weak VDR-affinity.

[3] = biological target: T2, human vitamin D binding protein (DBP) (Homo sapiens, UniProt P02774); assay: Affinity to vitamin D binding protein (competition with 3H-1α,25-DHCC); settings: DBP purified from total human serum; 10^-11 to 2.5×10^-6 M; compared to 1α,25-DHCC; FIG. 1
T2 construct: pooled Gc allotypes not specified
T2 sequence (P02774 17-474): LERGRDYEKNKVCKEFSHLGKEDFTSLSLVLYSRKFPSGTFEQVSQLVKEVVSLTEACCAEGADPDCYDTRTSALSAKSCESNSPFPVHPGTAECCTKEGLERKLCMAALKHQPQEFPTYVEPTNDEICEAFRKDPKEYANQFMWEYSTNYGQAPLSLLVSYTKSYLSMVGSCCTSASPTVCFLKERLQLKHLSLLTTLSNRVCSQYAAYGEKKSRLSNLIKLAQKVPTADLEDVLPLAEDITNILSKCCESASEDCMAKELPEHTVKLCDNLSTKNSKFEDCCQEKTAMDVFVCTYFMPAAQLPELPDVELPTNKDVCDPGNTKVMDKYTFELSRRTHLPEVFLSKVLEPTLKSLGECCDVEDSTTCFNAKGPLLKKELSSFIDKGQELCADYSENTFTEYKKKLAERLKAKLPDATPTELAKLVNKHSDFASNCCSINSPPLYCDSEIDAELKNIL
Excerpt: Affinity to vitamin D binding protein.
Vitamin D binding protein (DBP) is the specific carrier for vitamin D and its metabolites in blood. The biological activity of vitamin D compounds depends on their binding to DBP, because strong binding to DBP will reduce the intracellular access to the VDR. Binding to the DBP may also influence the half-life of the vitamin D derivatives in circulation. Weak binders are rapidly metabolized, which is a favourable aspect in topical application.
In the assay, DBP is incubated with ^3 H-1α,25-DHCC and 1α,25-DHCC or with several vitamin D compounds according to the invention. To this purpose, the vitamin compounds are dissolved in ethanol in concentrations ranging from 10^-11 to 2.5×10^-6 M. The percentage bound/unbound ^3 H-1α,25-DHCC is then calculated. DBP is purified from total human serum. The results are shown in the appended FIG. 1. […] [^3 H]1α,25(OH)2 D3 =^3 H-1α,25-DHCC; in the Figure .cndot.=1α,25-DHCC (known compound); .quadrature.=compound 21; Δ=compound 28; o=compound 32 and .diamond.=compound 36.

Compound | concentration of optimum differentiating effect [1] | induction of differentiation and maturation of HL-60 cells [1] | VDR-affinity [2] | binding to the DBP [3] | NBT-reduction inducing capacity relative to the known 1α,25-DHCC [1]
C=C1/C(=C\C=C2/CCC[C@]3(C)[C@@H]([C@H](C)CCCC(C)(C)O)CC[C@@H]23)C[C@@H](O)C[C@@H]1O [1α,25-DHCC, 1α,25-dihydroxycholecalciferol, reference compound] | 10^-8 to 10^-7 M | induce differentiation and maturation |  |  | 
C=C1/C(=C\C=C2/CCC[C@]3(C)/C(=C\CCCC(C)(C)O)CC[C@@H]23)C[C@@H](O)C[C@@H]1O [compound 21] | 10^-8 to 10^-7 M | induce differentiation and maturation | moderate | rather weakly | 3-5 times
C=C1/C(=C\C=C2/CCC[C@]3(C)/C(=C/CCCC(C)(C)O)CC[C@@H]23)C[C@@H](O)C[C@@H]1O [compound 28] | 10^-8 to 10^-7 M | induce differentiation and maturation | moderate | rather weakly | as potent as the known 1α,25-DHCC
C=C1/C(=C\C=C2/CCC[C@@]3(C)[C@H]2CC[C@@]32C[C@@H]2CCCC(C)(C)O)C[C@@H](O)C[C@@H]1O [compound 32] | 10^-8 to 10^-7 M | induce differentiation and maturation | high | rather weakly | 3-5 times
C=C1/C(=C\C=C2/CCC[C@@]3(C)[C@H]2CC[C@@]32C[C@H]2CCCC(C)(C)O)C[C@@H](O)C[C@@H]1O [compound 36] | 10^-8 to 10^-7 M | induce differentiation and maturation | weak | rather weakly | about 10 times
